Measurements: patent publication US20020137929A1, “1 - (3-heterocyclylphenyl) isothiourea, -isourea, -guanidine and -amidine herbicidal agents” (Intellectual Property Department, BASF Aktiengesellschaft, priority 1998, published 2002)

Assays:
ZEAMX (Corn, Field) = assay: Postemergence herbicidal evaluation; type: in vivo, Zea mays; settings: postemergence
Summary of the method: (§1)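 Rate range approx. 0.0156–0.500 kg/ha. Foliar application at 40 psi to ~2-week seedlings; surfactant 0.5% TWEEN 20 in 50/50 acetone/water. Evaluation 4–5 wk post-treatment by 0–9 visual injury score, means of replicate tests.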

AMBEL (Ragweed, Common) = assay: Preemergence herbicidal evaluation; type: in vivo, Ambrosia artemisifolia; settings: rated 4-5 weeks after treatment
Summary of the method: (§2)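 Scores use a 0–9 visual scale covering stand, vigor, malformation, size and chlorosis relative to controls, rated four to five weeks after treatment. Before emergence, soil-planted seeds were sprayed with compound in aqueous acetone at roughly 0.0156–0.500 kg/ha and held in the greenhouse.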

SETVI (Foxtail, Green) [1] = assay: Postemergence herbicidal evaluation; type: in vivo, Setaria viridis; settings: postemergence
Summary of the method: as §1

[2] = system: CHEAL (Lambsquarters, Common); assay: Postemergence herbicidal evaluation; type: in vivo, Chenopodium album; settings: postemergence
Summary of the method: as §1

CYPIR (Rice Flatsedge) = assay: Preemergence weed control under flooded paddy conditions; type: in vivo, Cyperus iria; settings: rated 3-4 weeks after treatment
Summary of the method: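 Herbicidal effect is scored visually on a 0-9 scale against an untreated control, three to four weeks after compounds are pipetted into the flood water (1.5 to 3 cm deep) over seeds planted in silt loam at 0.5 cm depth. Rates: about 0.0313 to 0.500 kg/ha.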

[3] = system: GLXMAW (Soybean, Williams); assay: Postemergence herbicidal evaluation; type: in vivo, Glycine max, (L.) Merr. cv Williams; settings: postemergence
Summary of the method: as §1

SETVI (Foxtail, Green) [4] = assay: Preemergence herbicidal evaluation; type: in vivo, Setaria viridis; settings: rated 4-5 weeks after treatment
Summary of the method: as §2

GALAP (Galium) = assay: Preemergence herbicidal evaluation; type: in vivo, Galium aparine; settings: rated 4-5 weeks after treatment
Summary of the method: as §2

ABUTH (Velvetleaf) = assay: Postemergence herbicidal evaluation; type: in vivo, Abutilon theophrasti; settings: postemergence
Summary of the method: as §1

[5] = system: TRZAWR (Wheat, Winter, cv Riband); assay: Postemergence herbicidal evaluation; type: in vivo, Triticum aestivum; settings: postemergence
Summary of the method: as §1

ORYSAT (Rice, Tebonnet) = assay: Postemergence herbicidal evaluation; type: in vivo, Oryza sativa, (L.) Tebonnet; settings: postemergence
Summary of the method: as §1

SMILES: Cn1c(C(F)(F)F)cc(=O)n(-c2cc(N=C3SCC(=O)N3CC(=O)OCC3CCCCC3)c(Cl)cc2F)c1=O [Compound 123, Cyclohexylmethyl 2-{{2-chloro-5-[3,6-dihydro-3-methyl-2,6-dioxo-4-(trifluoromethyl)-1(2H)-pyrimidinyl]-4-fluorophenyl}imino}-4-oxo-3-thiazolidineacetate]
- Herbicidal rating ZEAMX (ZEAMX (Corn, Field); rate 0.0156 kg/ha): 6.5
- Herbicidal rating ZEAMX (ZEAMX (Corn, Field); rate 0.0313 kg/ha): 7.0
- Herbicidal rating ZEAMX (ZEAMX (Corn, Field); rate 0.0625 kg/ha): 7.5
- Herbicidal rating ZEAMX (ZEAMX (Corn, Field); rate 0.1250 kg/ha): 7.5
- Preemergence herbicidal rating AMBEL (AMBEL (Ragweed, Common); rate 0.0156 kg/ha): 2.0
- Preemergence herbicidal rating AMBEL (AMBEL (Ragweed, Common); rate 0.0313 kg/ha): 1.0
- Preemergence herbicidal rating AMBEL (AMBEL (Ragweed, Common); rate 0.0625 kg/ha): 3.0
- Preemergence herbicidal rating AMBEL (AMBEL (Ragweed, Common); rate 0.1250 kg/ha): 4.0
- Preemergence herbicidal rating AMBEL (AMBEL (Ragweed, Common); rate 0.2500 kg/ha): 9.0
- Preemergence herbicidal rating AMBEL (AMBEL (Ragweed, Common); rate 0.5000 kg/ha): 9.0
- Herbicidal rating SETVI (SETVI (Foxtail, Green) [1]; rate 0.0156 kg/ha): 9.0
- Herbicidal rating SETVI (SETVI (Foxtail, Green) [1]; rate 0.0313 kg/ha): 9.0
- Herbicidal rating SETVI (SETVI (Foxtail, Green) [1]; rate 0.0625 kg/ha): 9.0
- Herbicidal rating SETVI (SETVI (Foxtail, Green) [1]; rate 0.1250 kg/ha): 9.0
- Herbicidal rating CHEAL ([2]; rate 0.0156 kg/ha): 9.0
- Herbicidal rating CHEAL ([2]; rate 0.0313 kg/ha): 9.0
- Herbicidal rating CHEAL ([2]; rate 0.0625 kg/ha): 9.0
- Herbicidal rating CHEAL ([2]; rate 0.1250 kg/ha): 9.0
- herbicidal effect rating, CYPIR (CYPIR (Rice Flatsedge); 0.0313 kg/ha): 6.0
- herbicidal effect rating, CYPIR (CYPIR (Rice Flatsedge); 0.0625 kg/ha): 5.0
- herbicidal effect rating, CYPIR (CYPIR (Rice Flatsedge); 0.1250 kg/ha): 9.0
- herbicidal effect rating, CYPIR (CYPIR (Rice Flatsedge); 0.2500 kg/ha): 9.0
- Herbicidal rating GLXMAW ([3]; rate 0.0156 kg/ha): 6.5
- Herbicidal rating GLXMAW ([3]; rate 0.0313 kg/ha): 6.5
- Herbicidal rating GLXMAW ([3]; rate 0.0625 kg/ha): 8.0
- Herbicidal rating GLXMAW ([3]; rate 0.1250 kg/ha): 9.0
- Preemergence herbicidal rating SETVI (SETVI (Foxtail, Green) [4]; rate 0.0156 kg/ha): 7.0
- Preemergence herbicidal rating SETVI (SETVI (Foxtail, Green) [4]; rate 0.0313 kg/ha): 7.0
- Preemergence herbicidal rating SETVI (SETVI (Foxtail, Green) [4]; rate 0.0625 kg/ha): 7.0
- Preemergence herbicidal rating SETVI (SETVI (Foxtail, Green) [4]; rate 0.1250 kg/ha): 9.0
- Preemergence herbicidal rating SETVI (SETVI (Foxtail, Green) [4]; rate 0.2500 kg/ha): 9.0
- Preemergence herbicidal rating SETVI (SETVI (Foxtail, Green) [4]; rate 0.5000 kg/ha): 9.0
- Preemergence herbicidal rating GALAP (GALAP (Galium); rate 0.0156 kg/ha): 2.0
- Preemergence herbicidal rating GALAP (GALAP (Galium); rate 0.0313 kg/ha): 3.0
- Preemergence herbicidal rating GALAP (GALAP (Galium); rate 0.0625 kg/ha): 3.0
- Preemergence herbicidal rating GALAP (GALAP (Galium); rate 0.1250 kg/ha): 7.0
- Preemergence herbicidal rating GALAP (GALAP (Galium); rate 0.2500 kg/ha): 6.0
- Preemergence herbicidal rating GALAP (GALAP (Galium); rate 0.5000 kg/ha): 9.0
- Herbicidal rating ABUTH (ABUTH (Velvetleaf); rate 0.0156 kg/ha): 9.0
- Herbicidal rating ABUTH (ABUTH (Velvetleaf); rate 0.0313 kg/ha): 9.0
- Herbicidal rating ABUTH (ABUTH (Velvetleaf); rate 0.0625 kg/ha): 9.0
- Herbicidal rating ABUTH (ABUTH (Velvetleaf); rate 0.1250 kg/ha): 9.0
- Herbicidal rating TRZAWR ([5]; rate 0.0156 kg/ha): 4.0
- Herbicidal rating TRZAWR ([5]; rate 0.0313 kg/ha): 4.5
- Herbicidal rating TRZAWR ([5]; rate 0.0625 kg/ha): 6.0
- Herbicidal rating TRZAWR ([5]; rate 0.1250 kg/ha): 6.5
- Herbicidal rating ORYSAT (ORYSAT (Rice, Tebonnet); rate 0.0156 kg/ha): 4.0
- Herbicidal rating ORYSAT (ORYSAT (Rice, Tebonnet); rate 0.0313 kg/ha): 4.0
- Herbicidal rating ORYSAT (ORYSAT (Rice, Tebonnet); rate 0.0625 kg/ha): 5.5
- Herbicidal rating ORYSAT (ORYSAT (Rice, Tebonnet); rate 0.1250 kg/ha): 5.5
